Results as given in paper PMC7688903 (Frontiers in Microbiology, 2020).
≈ marks a conversion by molar mass, not a printed value. Counter-ions that a name gives are not always drawn. Where a SMILES comes first, the peptide text is derived from it. Where no end group is shown, it is not given here. [ ]: non-standard residue; d: D form. hArg = N=C(N)NCCCC[C@H](N)C(=O)O; 2Thi = N[C@@H](Cc1cccs1)C(=O)O

Legend:
[1] = system: S. aureus ATCC 25923; assay: microbe, parasite or virus in culture; assay type: cell-based, Staphylococcus aureus
Description: (§1) The antimicrobial activities of the peptides were tested against E. coli ATCC 25922, P. aeruginosa ATCC 27853, carbapenem-resistant P. aeruginosa SIPI-012, A. baumannii ATCC 19606, carbapenem-resistant A. baumannii SIPI-025, S. aureus ATCC 25923, and C. albicans ATCC 10231. The minimum inhibitory concentration (MIC) values were determined using the microdilution method according to Clinical and Laboratory Standards Institute guidelines ([CLSI, 2008], [2012]). The peptides were dissolved in 10 mM PB to a concentration of 1280 μg/mL as stock solutions.
(§2) For inoculum preparation of bacteria, morphologically similar colonies selected from fresh MH agar plates were transferred using a loop into approximately 10 mL of MH broth in a capped test tube and vortexed. The suspension was adjusted with MH broth to achieve a turbidity equivalent to a 0.5 McFarland standard (BaSO4 solution prepared spectrophotometrically). A working suspension was prepared by making a 1:15 dilution followed by a 1:20 dilution of the stock suspension with MH broth medium to obtain approximately 5 × 10^5 CFU/mL. For inoculum preparation of yeast, five fresh colonies of approximately 1 mm diameter were picked from 24-hour-old cultures of C. albicans and suspended in 5 mL of sterile 0.85% saline. The resulting suspension was vortexed and the cell density was adjusted by adding sufficient sterile saline to achieve a turbidity equivalent to a 0.5 McFarland standard. A working suspension was prepared by making a 1:100 dilution followed by a 1:20 dilution of the stock suspension with RPMI 1640 broth medium to obtain 0.5 × 10^3 to 2.5 × 10^3 CFU/mL. Intermediate twofold dilutions of the peptides were prepared in MH broth and RPMI 1640 medium, and 90 μL aliquots were added to each well in addition to 10 μL of the inoculum prepared above.
(§3) Each plate included a growth control well and a sterility (uninoculated) control well. Colistin, vancomycin hydrochloride, and amphotericin B were used as positive controls for gram-negative bacteria, gram-positive bacteria, and fungi, respectively. The bacterial and fungal plates were incubated at 37°C for 20 h and 35°C for 48 h, respectively, both under ambient atmosphere. The inhibition of microbial growth was assessed visually. The MICs were determined from independent triplicate assays.

[2] = system: RAW 264.7 cells; assay: Cell viability assay (MTT); assay type: cell-based, mouse; conditions: 1–128 μM peptide in DMEM with 4% FBS, 42 h, 595 nm, triplicate
Description: The peptides were dissolved in ddH2O to a concentration of 256 μM. RAW 264.7 cells were cultured in 100 μL of DMEM containing 10% FBS and seeded at a density of 1 × 10^4 cells in a 96-well culture plate. The plate was incubated at 37°C under 5% CO2 atmosphere overnight. After attaining 80% confluency, the cells were treated with various concentrations of the peptides (1–128 μM) dissolved in DMEM containing 4% FBS for 42 h. Cytotoxicity was determined using the MTT tetrazolium reduction assay and quantified spectrophotometrically at 595 nm using a SpectraMax i3x microplate reader. The cell viability was calculated with respect to control samples treated only with DMEM containing 4% FBS ([Khara et al., 2016]). Each test was done in triplicate and the concentration required for 50% inhibition of viability (IC50) was determined.

[3] = system: P. aeruginosa ATCC 27853; assay type: cell-based, Pseudomonas aeruginosa; conditions: ATCC 27853, 20 h
Description: as §1, §2, §3

[4] = system: carbapenem-resistant P. aeruginosa (CRPA) SIPI-012; assay type: cell-based, Pseudomonas aeruginosa; conditions: carbapenem-resistant (CRPA) SIPI-012, 20 h
Description: as §1, §2, §3

[5] = system: human plasma proteases; assay: in vitro
[6] = system: human erythrocytes; assay: Hemolytic activity assay; assay type: cell-based; conditions: human RBC in PB, 37°C, 1 h, OD420, total lysis control 0.1% SDS, three technical replicates
Description: Whole blood was obtained from a healthy volunteer. The red blood cells (RBC) were then centrifuged (800 × g, 10 min), washed twice with PB, resuspended in 1 mL of PB, and incubated with various concentrations of the peptides (32–128 μM) at 37°C for 1 h. As a positive control, total lysis of the RBC was accomplished by incubation with 0.1% SDS. For each condition, three technical replicates were performed. After incubation, the RBC were centrifuged at 800 × g for 10 min and the amount of hemoglobin released into the supernatant was determined by measuring the optical density OD420 using a SpectraMax i3x microplate reader (Molecular Devices) ([Zaet et al., 2017]).

[7] = system: C. albicans ATCC 10231; assay: microbe, parasite or virus in culture; assay type: cell-based, Candida albicans; conditions: ATCC 10231, 48 h
Description: as §1, §2, §3

[8] = system: proteases secreted by S. aureus ATCC 25923; assay: in vitro; conditions: Staphylococcus aureus, S. aureus ATCC 25923 culture supernatant, pH 8
Description: The stabilities of the peptides toward proteases secreted by E. coli ATCC 25922, P. aeruginosa ATCC 27853, A. baumannii ATCC 19606, S. aureus ATCC 25923, and C. albicans ATCC 10231 were also examined. Microbial supernatants were prepared by resuspending single colonies of each strain in 20 mL of an appropriate culture medium followed by incubation at 37°C overnight. MH broth and 2% tryptone/2% dextrose were used as the culture media for bacteria and yeast, respectively. Each culture was then centrifuged at 12,000 × g for 10 min and the supernatant was adjusted to pH 8.0 with HCl or NaOH and then filtered through a 0.22 μm sterile filter membrane ([Zaet et al., 2017]). The peptides were then dissolved in the filtered supernatants to a concentration of 0.5 mg/mL, and the peptide-free supernatants were used as negative controls. The samples were incubated at 37°C for 24 h in a water bath and then analyzed by RP-HPLC as described above.

[9] = system: E. coli ATCC 25922; assay type: cell-based, Escherichia coli; conditions: ATCC 25922, 20 h
Description: as §1, §2, §3

[10] = system: A. baumannii ATCC 19606; assay type: cell-based, Acinetobacter baumannii; conditions: ATCC 19606, 20 h
Description: as §1, §2, §3

[11] = system: carbapenem-resistant A. baumannii (CRAB) SIPI-025; assay type: cell-based, Acinetobacter baumannii; conditions: carbapenem-resistant (CRAB) SIPI-025, 20 h
Description: as §1, §2, §3

| Compound | MIC ([1]; Staphylococcus aureus, ATCC25923, 20 h) [µg/mL] | IC50 [2] [µM] | MIC ([1]; ATCC 25923, 20 h) [µg/mL] | MIC [3] [µg/mL] | MIC [4] [µg/mL] | metabolised at 2 h, 0.1 mg/mL [5] [%] | metabolised at 4 h, 0.1 mg/mL [5] [%] | Hemolysis rate (%) ([6]; 64 μM) | Hemolysis rate (%) ([6]; 128 μM) | MIC [7] [µg/mL] | remaining at 24 h, 0.5 mg/mL [8] [%] | MIC [9] [µg/mL] | MIC [10] [µg/mL] | MIC [11] [µg/mL] |
| --- | --- | --- | --- | --- | --- | --- | --- | --- | --- | --- | --- | --- | --- | --- |
| CN[C@H](CC(C)C)C(=O)N[C@H]1C(=O)N[C@@H](CC(N)=O)C(=O)N[C@H]2C(=O)N[C@H]3C(=O)N[C@H](C(=O)N[C@H](C(=O)O)c4cc(O)cc(O)c4-c4cc3ccc4O)[C@H](O)c3ccc(c(Cl)c3)Oc3cc2cc(c3O[C@@H]2O[C@H](CO)[C@@H](O)[C@H](O)[C@H]2O[C@H]2C[C@](C)(N)[C@H](O)[C@H](C)O2)Oc2ccc(cc2Cl)[C@H]1O [Van, vancomycin hydrochloride, reference compound] | 0.5 |  |  |  |  |  |  |  |  |  |  |  |  |  |
| RRIFKRLFKYLRRF-NH2 [LP02] |  | 14.4 ± 1.44 | 1 | 2 | 8 | > 40 | > 50 | 24.18 ± 2.01 | 45.40 ± 2.40 | 8 | 19.7 ± 8.58 | 2 | 2 | 4 |
| CC(C)C[C@H](NC(=O)[C@H](Cc1ccc(O)cc1)NC(=O)[C@H](CCCCN)NC(=O)[C@H](CC(C)C)NC(=O)[C@H](CC(C)C)NC(=O)[C@H](CCCCN)NC(=O)[C@H](CCCCN)NC(=O)[C@H](Cc1ccccc1)NC(=O)[C@H](CC(C)C)NC(=O)[C@H](CCCNC(=N)N)NC(=O)[C@@H](N)CCCCNC(=N)N)C(=O)N[C@@H](CCCNC(=N)N)C(=O)N[C@@H](CCCCN)C(=O)N[C@@H](Cc1cccs1)C(N)=O [UP10] (H-[hArg]RLFKKLLKYLRK[2Thi]-NH2) |  | 22.8 ± 4.65 | 0.5 (≈ 0.259 µM) | 1 (≈ 0.519 µM) | 4 (≈ 2.07 µM) | > 40 | > 50 | 56.82 ± 2.62 | 95.02 ± 1.84 | 4 (≈ 2.07 µM) | 31.6 ± 7.81 | 2 (≈ 1.04 µM) | 2 (≈ 1.04 µM) | 2 (≈ 1.04 µM) |
| CC(C)C[C@H](NC(=O)[C@H](Cc1ccc(O)cc1)NC(=O)[C@H](CCCCN)NC(=O)[C@H](CC(C)C)NC(=O)[C@H](CC(C)C)NC(=O)[C@@H](CCCCN)NC(=O)[C@@H](CCCCN)NC(=O)[C@H](Cc1ccccc1)NC(=O)[C@H](CC(C)C)NC(=O)[C@H](CCCNC(=N)N)NC(=O)[C@@H](N)CCCCN)C(=O)N[C@@H](CCCNC(=N)N)C(=O)N[C@H](CCCCN)C(=O)N[C@@H](Cc1ccccc1)C(N)=O [DP04] (H-KRLF[dK][dK]LLKYLR[dK]F-NH2) |  | 34.7 ± 3.69 | 0.5 (≈ 0.266 µM) | 1 (≈ 0.532 µM) | 4 (≈ 2.13 µM) | > 40 | > 50 | 38.84 ± 1.61 | 58.26 ± 1.84 | 4 (≈ 2.13 µM) | 63.7 ± 8.1 | 1 (≈ 0.532 µM) | 2 (≈ 1.06 µM) | 1 (≈ 0.532 µM) |
